The subject of this assay is c-myc in 22RV-1 cells. Put plainly: Human c-myc ELISA assay. Format: cell-based. To be noted: Homo sapiens; for Emax: 22Rv1, 18 h, read-out: Degradation of BRD4: Maximum inhibition (%) c-Myc ELISA in 22RV1 cells; for DC50: 22Rv1, read-out: Degradation of BRD4: DC50 (uM) c-Myc ELISA in 22RV1 cells. In a few lines:
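22RV-1 cells treated 18 h with 8-point 1:3 compound dilutions (final top 300 nM or 1 μM, 0.1% DMSO). Cells lysed in RIPA buffer with protease/phosphatase inhibitors, and c-myc protein in cleared lysate quantified by ELISA against a standard curve. DC50 reported for c-myc suppression.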
On the technique in general: An ELISA detects its analyte on a solid surface through an enzyme-linked reagent.

From patent US11554171B2, “Compounds and methods for the targeted degradation of bromodomain-containing proteins” (Arvinas Operations, Inc., priority 2015, dated 2023) come the findings set out here.

In general, DC50 refers to the concentration at which degradation of the target reaches its halfway point. Regarding `Cc1ncsc1-c1ccc([C@H](C)NC(=O)[C@@H]2C[C@@H](O)CN2C(=O)[C@H](C(C)C)n2cc(-c3ccnc(O[C@H]4C[C@H](NC(=O)C[C@@H]5N=C(c6ccc(Cl)cc6)c6c(sc(C)c6C)-n6c(C)nnc65)C4)c3)cn2)cc1` [Example 228, (2S,4R)-4-hydroxy-N-[(1S)-1-[4-(4-methyl-1,3-thiazol-5-yl)phenyl]ethyl]-1-[(2S)-3-methyl-2-(4-{2-[(1r,3r)-3-{2-[(9S)-7-(4-chlorophenyl)-4,5,13-trimethyl-3-thia-1,8,11,12-tetraazatricyclo[8.3.0.0^2,^6]trideca-2(6),4,7,10,12-pentaen-9-yl]acetamido}cyclobutoxy]pyridin-4-yl}-1H-pyrazol-1-yl)butanoyl]pyrrolidine-2-carboxamide], the Emax is 100% and the DC50 is less than 0.01 µM.

Turning to `Cc1ncsc1-c1ccc([C@H](C)NC(=O)[C@@H]2C[C@@H](O)CN2C(=O)[C@@H](NC(=O)c2cc3ccc(O[C@H]4C[C@H](NC(=O)C[C@@H]5N=C(c6ccc(Cl)cc6)c6c(sc(C)c6C)-n6c(C)nnc65)C4)cc3o2)C(C)(C)C)cc1` [Example 229], the Emax stood at 100% and the DC50 was less than 0.01 µM.

Regarding `Cc1ncsc1-c1ccc([C@H](C)NC(=O)[C@@H]2C[C@@H](O)CN2C(=O)[C@@H](NC(=O)Cc2ccc(N3CC[C@@H](NC(=O)C[C@@H]4N=C(c5ccc(Cl)cc5)c5c(sc(C)c5C)-n5c(C)nnc54)C3)cc2)C(C)(C)C)cc1` [Example 230, (2S,4R)-1-[(2S)-2-(2-{4-[(3R)-3-{2-[(9S)-7-(4-chlorophenyl)-4,5,13-trimethyl-3-thia-1,8,11,12-tetraazatricyclo[8.3.0.0^2,^6]trideca-2(6),4,7,10,12-pentaen-9-yl]acetamido}pyrrolidin-1-yl]phenyl}acetamido)-3,3-dimethylbutanoyl]-4-hydroxy-N-[(1S)-1-[4-(4-methyl-1,3-thiazol-5-yl)phenyl]ethyl]pyrrolidine-2-carboxamide], the Emax came to 100% and the DC50 was less than 0.01 µM.

Take `Cc1ncsc1-c1ccc(CNC(=O)[C@@H]2C[C@@H](O)CN2C(=O)[C@@H](C(C)C)n2cc(-c3cccc(O[C@H](C)CNC(=O)C[C@@H]4N=C(c5ccc(Cl)cc5)c5c(sc(C)c5C)-n5c(C)nnc54)c3)cn2)cc1` [Example 231]: the Emax came to 39.5% and the DC50 is more than 1 µM.

`Cc1ncsc1-c1ccc(CNC(=O)[C@@H]2C[C@@H](O)CN2C(=O)[C@H](C(C)C)n2cc(-c3cccc(O[C@H](C)CNC(=O)C[C@@H]4N=C(c5ccc(Cl)cc5)c5c(sc(C)c5C)-n5c(C)nnc54)c3)cn2)cc1` [Example 232]: the Emax was determined as 83% and the DC50 was in the range of 0.01 to 0.1 µM.

For the compound `Cc1ncsc1-c1ccc([C@H](C)NC(=O)[C@@H]2C[C@@H](O)CN2C(=O)[C@H](n2cc(-c3ccnc(O[C@H]4C[C@H](NC(=O)C[C@@H]5N=C(c6ccc(Cl)cc6)c6c(sc(C)c6C)-n6c(C)nnc65)C4)c3)cn2)C(C)(C)C)cc1` [Example 233], the Emax came out at 26% and the DC50 is more than 1 µM.

As for `Cc1ncsc1-c1ccc([C@H](C)NC(=O)[C@@H]2C[C@@H](O)CN2C(=O)[C@@H](n2cc(-c3ccnc(O[C@H]4C[C@H](NC(=O)C[C@@H]5N=C(c6ccc(Cl)cc6)c6c(sc(C)c6C)-n6c(C)nnc65)C4)c3)cn2)C(C)(C)C)cc1` [Example 234], the Emax turned out to be 80.6% and the DC50 lay within 0.01 to 0.1 µM.

Consider `Cc1ncsc1-c1ccc([C@H](C)NC(=O)[C@@H]2C[C@@H](O)CN2C(=O)[C@@H](NC(=O)Cc2ccc(N3CC[C@H](NC(=O)C[C@@H]4N=C(c5ccc(Cl)cc5)c5c(sc(C)c5C)-n5c(C)nnc54)C3)cc2)C(C)(C)C)cc1` [Example 235, (2S,4R)-1-[(2S)-2-(2-{4-[(3S)-3-{2-[(9S)-7-(4-chlorophenyl)-4,5,13-trimethyl-3-thia-1,8,11,12-tetraazatricyclo[8.3.0.0^2,^6]trideca-2(6),4,7,10,12-pentaen-9-yl]acetamido}pyrrolidin-1-yl]phenyl}acetamido)-3,3-dimethylbutanoyl]-4-hydroxy-N-[(1S)-1-[4-(4-methyl-1,3-thiazol-5-yl)phenyl]ethyl]pyrrolidine-2-carboxamide], for which the Emax stood at 97.5% and the DC50 is less than 0.01 µM.

Regarding `Cc1ncsc1-c1ccc([C@H](C)NC(=O)[C@@H]2C[C@@H](O)CN2C(=O)[C@@H](NC(=O)COc2ccc(N3CC[C@H](NC(=O)C[C@@H]4N=C(c5ccc(Cl)cc5)c5c(sc(C)c5C)-n5c(C)nnc54)C3)nc2)C(C)(C)C)cc1` [Example 236], the Emax amounted to 88.9% and the DC50 lay in the range of 0.01 to 0.1 µM.

In the case of `Cc1ncsc1-c1ccc(CNC(=O)[C@@H]2C[C@@H](O)CN2C(=O)[C@@H](C(C)C)n2cc(Oc3ccc(CNC(=O)C[C@@H]4N=C(c5ccc(Cl)cc5)c5c(sc(C)c5C)-n5c(C)nnc54)cc3)cn2)cc1` [Example 237], the Emax amounted to 13.8% and the DC50 is more than 1 µM.

Consider `Cc1ncsc1-c1ccc(CNC(=O)[C@@H]2C[C@@H](O)CN2C(=O)[C@H](C(C)C)n2cc(Oc3ccc(CNC(=O)C[C@@H]4N=C(c5ccc(Cl)cc5)c5c(sc(C)c5C)-n5c(C)nnc54)cc3)cn2)cc1` [Example 238], for which the Emax came to 93.3% and the DC50 was in the range of 0.01 to 0.1 µM.

For `Cc1ncsc1-c1ccc([C@H](C)NC(=O)[C@@H]2C[C@@H](O)CN2C(=O)[C@H](n2cc(-c3ccnc(O[C@H]4C[C@@H](NC(=O)C[C@@H]5N=C(c6ccc(Cl)cc6)c6c(sc(C)c6C)-n6c(C)nnc65)C4)c3)cn2)C(C)(C)C)cc1` [Example 239], the Emax turned out to be 39% and the DC50 was more than 1 µM.

Consider `Cc1ncsc1-c1ccc([C@H](C)NC(=O)[C@@H]2C[C@@H](O)CN2C(=O)[C@@H](n2cc(-c3ccnc(O[C@H]4C[C@@H](NC(=O)C[C@@H]5N=C(c6ccc(Cl)cc6)c6c(sc(C)c6C)-n6c(C)nnc65)C4)c3)cn2)C(C)(C)C)cc1` [Example 240], for which the Emax was 97% and the DC50 was less than 0.01 µM.

For the compound `Cc1ncsc1-c1ccc([C@H](C)NC(=O)[C@@H]2C[C@@H](O)CN2C(=O)[C@@H](C(C)C)n2cc(-c3cccc(O[C@H]4C[C@@H](NC(=O)C[C@@H]5N=C(c6ccc(Cl)cc6)c6c(sc(C)c6C)-n6c(C)nnc65)C4)c3)cn2)cc1` [Example 241], the Emax was determined as 49.8% and the DC50 was more than 1 µM.

As for `Cc1ncsc1-c1ccc([C@H](C)NC(=O)[C@@H]2C[C@@H](O)CN2C(=O)[C@@H](NC(=O)COc2ccc(N3CC[C@@H](NC(=O)C[C@@H]4N=C(c5ccc(Cl)cc5)c5c(sc(C)c5C)-n5c(C)nnc54)C3)nc2)C(C)(C)C)cc1` [Example 242], the Emax is 98% and the DC50 was less than 0.01 µM.

For the compound `Cc1ncsc1-c1ccc([C@H](C)NC(=O)[C@@H]2C[C@@H](O)CN2C(=O)[C@H](C(C)C)n2cc(-c3cccc(O[C@H]4C[C@@H](NC(=O)C[C@@H]5N=C(c6ccc(Cl)cc6)c6c(sc(C)c6C)-n6c(C)nnc65)C4)c3)cn2)cc1` [Example 243], the Emax was found to be 95.5% and the DC50 was less than 0.01 µM.

`Cc1ncsc1-c1ccc([C@H](C)NC(=O)[C@@H]2C[C@@H](O)CN2C(=O)[C@@H](C(C)C)n2cc(-c3cccc(O[C@H]4C[C@H](NC(=O)C[C@@H]5N=C(c6ccc(Cl)cc6)c6c(sc(C)c6C)-n6c(C)nnc65)C4)c3)cn2)cc1` [Example 244]: the Emax is 95.5% and the DC50 was in the range of 0.01 to 0.1 µM.

Take `Cc1ncsc1-c1ccc([C@H](C)NC(=O)[C@@H]2C[C@@H](O)CN2C(=O)[C@@H](C(C)C)n2cc(-c3cc(F)cc(O[C@H]4C[C@@H](NC(=O)C[C@@H]5N=C(c6ccc(Cl)cc6)c6c(sc(C)c6C)-n6c(C)nnc65)C4)c3)cn2)cc1` [Example 246]: the Emax amounted to 83% and the DC50 was in the range of 0.1 to 1 µM.

As for `Cc1ncsc1-c1ccc([C@H](C)NC(=O)[C@@H]2C[C@@H](O)CN2C(=O)[C@@H](C(C)C)n2cc(-c3ccnc(N4CC(NC(=O)C[C@@H]5N=C(c6ccc(Cl)cc6)c6c(sc(C)c6C)-n6c(C)nnc65)C4)c3)cn2)cc1` [Example 247], the Emax came out at 24.1% and the DC50 was more than 1 µM.

In the case of `Cc1ncsc1-c1ccc([C@H](C)NC(=O)[C@@H]2C[C@@H](O)CN2C(=O)[C@H](C(C)C)n2cc(-c3ccnc(N4CC(NC(=O)C[C@@H]5N=C(c6ccc(Cl)cc6)c6c(sc(C)c6C)-n6c(C)nnc65)C4)c3)cn2)cc1` [Example 248], the Emax came to 95.9% and the DC50 lay within 0.01 to 0.1 µM.

Take `Cc1ncsc1-c1ccc([C@H](C)NC(=O)[C@@H]2C[C@@H](O)CN2C(=O)[C@@H](NC(=O)Cc2ccc(O[C@H]3C[C@H](NC(=O)C[C@@H]4N=C(c5ccc(Cl)cc5)c5c(sc(C)c5C)-n5c(C)nnc54)C3)cc2F)C(C)(C)C)cc1` [Example 249, (2S,4R)-1-[(2S)-2-(2-{2-fluoro-4-[(1r,3r)-3-{2-[(9S)-7-(4-chlorophenyl)-4,5,13-trimethyl-3-thia-1,8,11,12-tetraazatricyclo[8.3.0.0^2,^6]trideca-2(6),4,7,10,12-pentaen-9-yl]acetamido}cyclobutoxy]phenyl}acetamido)-3,3-dimethylbutanoyl]-4-hydroxy-N-[(1S)-1-[4-(4-methyl-1,3-thiazol-5-yl)phenyl]ethyl]pyrrolidine-2-carboxamide]: the Emax was determined as 98.5% and the DC50 was less than 0.01 µM.

As to `Cc1sc2c(c1C)C(c1ccc(Cl)cc1)=N[C@@H](CC(=O)N[C@H]1C[C@H](Oc3ccc(CC(=O)N[C@H](C(=O)N4C[C@H](O)C[C@H]4C(=O)N[C@@H](C)c4ccc(-c5cnnn5C)cc4)C(C)(C)C)cc3)C1)c1nnc(C)n1-2` [Example 250], the Emax stood at 16.1% and the 50% degradation concentration (DC50) was more than 1 µM.
